Values of other authors, collected in patent publication US20050187388A1, “Method for the preparation of aryl ethers” (priority 2004, published 2005).

What was measured:
serotonin reuptake = serotonin reuptake (Homo sapiens, UniProt P31645)
8-OH-DPAT hypothermia = conditions: in vivo
dopamine reuptake = dopamine reuptake (Homo sapiens, UniProt Q01959)
Sequence of dopamine reuptake (Q01959 whole entry): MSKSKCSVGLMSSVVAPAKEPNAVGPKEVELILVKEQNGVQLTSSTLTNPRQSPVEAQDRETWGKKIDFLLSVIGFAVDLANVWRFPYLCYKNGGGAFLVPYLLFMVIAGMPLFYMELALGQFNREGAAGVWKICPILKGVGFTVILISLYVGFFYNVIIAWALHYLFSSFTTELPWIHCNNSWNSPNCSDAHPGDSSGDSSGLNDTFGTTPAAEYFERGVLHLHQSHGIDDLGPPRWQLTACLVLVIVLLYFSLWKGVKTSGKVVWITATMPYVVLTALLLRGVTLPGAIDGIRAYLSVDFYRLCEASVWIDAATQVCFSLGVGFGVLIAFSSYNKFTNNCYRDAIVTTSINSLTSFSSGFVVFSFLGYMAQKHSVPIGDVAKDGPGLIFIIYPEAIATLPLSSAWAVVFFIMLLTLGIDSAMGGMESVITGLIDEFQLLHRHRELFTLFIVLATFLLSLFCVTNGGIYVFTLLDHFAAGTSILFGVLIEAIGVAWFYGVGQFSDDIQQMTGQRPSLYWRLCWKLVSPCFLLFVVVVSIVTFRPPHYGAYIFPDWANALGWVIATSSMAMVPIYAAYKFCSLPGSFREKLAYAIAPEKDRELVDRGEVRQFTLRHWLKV

Sequence of serotonin reuptake (P31645 whole entry): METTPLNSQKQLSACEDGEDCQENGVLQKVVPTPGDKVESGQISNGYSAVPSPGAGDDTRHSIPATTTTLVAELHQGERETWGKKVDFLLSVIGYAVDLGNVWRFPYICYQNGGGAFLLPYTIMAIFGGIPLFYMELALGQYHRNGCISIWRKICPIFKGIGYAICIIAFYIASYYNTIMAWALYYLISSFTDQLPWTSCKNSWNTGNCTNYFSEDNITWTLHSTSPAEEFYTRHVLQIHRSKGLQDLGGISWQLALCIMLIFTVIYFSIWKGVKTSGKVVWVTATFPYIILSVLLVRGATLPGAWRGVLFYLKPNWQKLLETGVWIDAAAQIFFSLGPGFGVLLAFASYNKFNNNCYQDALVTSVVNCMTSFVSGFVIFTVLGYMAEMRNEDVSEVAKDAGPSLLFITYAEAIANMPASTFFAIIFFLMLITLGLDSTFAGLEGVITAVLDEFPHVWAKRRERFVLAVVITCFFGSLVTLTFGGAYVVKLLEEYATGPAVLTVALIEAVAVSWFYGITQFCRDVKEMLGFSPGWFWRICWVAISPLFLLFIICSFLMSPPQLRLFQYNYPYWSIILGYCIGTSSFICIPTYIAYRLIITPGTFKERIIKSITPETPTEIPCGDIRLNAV

CCOc1ccccc1O[C@@H](c1ccccc1)[C@@H]1CNCCO1 (racemic) [Reboxetine, 2-[α-(2-ethoxyphenoxy)benzyl]morpholine]
serotonin reuptake inhibitory activity (serotonin reuptake): only marginal | effect in the 8-OH-DPAT hypothermia test (8-OH-DPAT hypothermia): ineffective | dopamine reuptake inhibitory activity (dopamine reuptake): no dopamine reuptake inhibitory activity
